SMILES strings stand for the structures. Bounds are passed on as bounds.

Broadly, the IC50 is the concentration that inhibits the measured activity by half.

For one assay, the target named is T1, Human Melatonin Receptor ML1A (Homo sapiens, UniProt P48039).
T1 construct: expressed in transfected cells; host or cells: COS-1 cells, pcDNAI vector, DEAE-dextran transfection
T1 sequence (P48039 whole entry): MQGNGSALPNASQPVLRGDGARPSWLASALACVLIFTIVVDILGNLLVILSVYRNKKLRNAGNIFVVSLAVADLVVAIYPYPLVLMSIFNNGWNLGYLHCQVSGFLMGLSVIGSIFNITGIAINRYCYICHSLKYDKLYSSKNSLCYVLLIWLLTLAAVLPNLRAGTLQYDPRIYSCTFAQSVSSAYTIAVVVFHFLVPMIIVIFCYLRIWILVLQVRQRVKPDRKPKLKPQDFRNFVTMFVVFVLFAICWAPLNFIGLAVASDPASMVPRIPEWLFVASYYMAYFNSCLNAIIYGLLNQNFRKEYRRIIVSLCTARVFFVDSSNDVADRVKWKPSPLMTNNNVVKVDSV
Briefly: Melatonergic binding at the human melatonin receptor ML1A (2-[125I]-iodomelatonin displacement, membranes of transfected COS-1 cells). The following applies: human ML1A in COS-1 cell membranes, 2-[125I]-iodomelatonin 100 pM, 37°C for 1 hour; read-out: Binding Affinity IC50. The protocol:
Example 47: Measurement of Melatonergic Binding at the Human Melatonin Receptor ML1A
• 1. Reagents: • (a) 50mM Tris buffer containing 12.5 mM MgCl2, and 2mM EDTA, pH 7.4 at 37 °C with concentrated HCl. • (b) Wash buffer: 20mM Tris base containing 2mM MgCl2. pH 7.4 at room temperature. • (c) 10^-4M 6-Chloromelatonin (10-^5M final concentration). • (d) 2-[^125I]-iodomelatonin, 100 pM final concentration Source: NEN • 2. Membrane preparation: The cDNA (human ML1A) in pcDNAI was introduced into COS-1 cells by the DEAE-dextran method. Three days after transfection, the media was removed, the plates washed with phosphate buffered saline, the cells removed using Hank's balanced salt solution and pelleted. For preparing membrane homogenates, pellets are thawed on ice, and resuspended in TME buffer, 50 mM Tris base, 12.5 mM MgCl2, 1 mM EDTA (pH7.4 at 37°C with concentrated HCL), supplemented with 10 µg/ml aprotinin and leupeptin, and 100 µM phenylmethlysulfonylfluoride. The cells were then homogenized using a dounce homogenizer, and centrifuged. The resulting pellet was resuspended with a dounce homogenizer in TME and frozen. On the day of assay, the small aliquot was thawed on ice and resuspended in TME buffer. • 3. Incubation: 37 °C for 1 hour. Reaction is terminated by filtration. • 4. […] Reference: Reppert, S. M., Weaver, D. R., and Ebisawa, R. (1994), Neuron, 13, 1177-1185.
As to `COCC(=O)NCCC1CCCc2ccc(OC)cc21` (single isomer, unassigned; (-)) [Example 38, (-)-N-[2-(1,2,3,4-tetrahydro-7-methoxynaphthalen-1-yl)ethyl] methoxyacetamide], the concentration for half-maximal inhibition (IC50) was under 100 nM.
In the case of `CCCC(=O)NCCC1CCc2ccc(OC)cc21` (single isomer, unassigned; (+)) [Example 37], the IC50 was in the range of 100 to 500 nM.
In the case of `COCC(=O)NCCC1CCCc2ccc(OC)cc21` (single isomer, unassigned; (+)) [Example 39, (+)-N-[2-(1,2,3,4-tetrahydro-7-methoxynaphthalen-1-yl)ethyl] methoxyacetamide], the IC50 was at least 500 nM.
For `CCCC(=O)NCCC1CCc2ccc(OC)cc21` (single isomer, unassigned; (-)) [Example 36], the half-inhibitory concentration (IC50) was under 100 nM.
Still for that read-out and setting: to `CCCC(=O)NCCC1CCc2ccc(OC(F)F)cc21` (centres unmarked) [Example 45, N-[2-(6-Difluoromethoxy-2,3-dihydro-1H-inden-1-yl)ethyl]butanamide] belongs under 100 nM; to `CCCCCCCCCCCCOc1ccc2c(c1)C(CCNC(=O)CCC)CC2` (centres unmarked) [Example 43, N-[2-(2,3-Dihydro-6-dodecyloxy-1H-inden-1-yl)ethyl]butanamide], under 100 nM.

The target in a further assay is ML1 Receptor. Briefly: Melatonergic binding at the ML1 receptor in rabbit tissue (2-[125I]-iodomelatonin displacement, parietal cortex homogenate). The following applies: 2-[125I]-iodomelatonin 44pM, 37°C for 1 hour, read-out: Binding Affinity IC50. The protocol:
Example 46: Measurement of Melatonergic Binding at the ML1 Receptor in Rabbit Tissue
• 1. Reagents • (a) 50mM Tris buffer containing 12.5 mM MgCl2, and 2mM EDTA (pH 7.4 at 37 °C). • (b) Wash buffer: 20mM Tris base containing 2mM MgCl2 (pH 7.4 at room temperature). • (c) 6-Chloromelatonin (10-^5M final concentration). • (d) 2-[^125I]-iodomelatoin, 44pM final concentration Source: NEN • 2. Tissue preparation. Male New Zealand white rabbits (Hazelton Research) are decapitated, the brains are rapidly removed and chilled. The parietal cortex is crudely dissected and frozen on dry ice with tissue stored at - 80 °C until assayed. Tissue is weighed and thawed in 20 mls ice cold Tris buffer (a) and homogenized by treatment with a polytron for 10 seconds at setting 17. Ice cold Tris (a) is added to a volume of 40 mls. The homogenate is centrifuged. The resulting supernatant is decanted and discarded. The pellet is rehomogenized in an additional 20 mls of Tris, diluted and centrifuged. The supernatant is decanted and discarded. The resulting pellet is homogenized in 20 volumes of Tris per gram of original tissue (a 1:20 homogenate), chilled, and held on ice until assayed. • 3. Incubation: 37 °C for 1 hour. Reaction is terminated by filtration. • 4. […] References: Stankov, B., Cozzi, B., Lucini, V., Fumagalli, P., Scaglione, F. and F. Fraschini. Characterization and mapping of melatonin receptors in the brain of three mammalian species: Rabbit, horse, and sheep. Neuroendocrinology 53: 214-221, 1991.
On to `COc1ccc2c(c1)C(CCNC(=O)C1CC1)CC2` (centres unmarked) [Example 24, N-[2-(2,3-Dihydro-6-methoxy-1H-inden-1-yl)-ethyl]cyclopropane carboxamide], for which the half-inhibitory concentration (IC50) is under 100 nM.
Regarding `COCC(=O)NCCC1CCCc2ccc(OC)cc21` (single isomer, unassigned; (-)) [Example 38, (-)-N-[2-(1,2,3,4-tetrahydro-7-methoxynaphthalen-1-yl)ethyl] methoxyacetamide], the IC50 is under 100 nM.
Same read-out and setting: to `CCCC(=O)NCCC1CC(C)(C)c2ccc(OC)cc21` (centres unmarked) [Example 33, N-[2-(2,3-Dihydro-6-methoxy-3,3-dimethyl-1H-inden-1-yl)ethyl]butanamide] belongs 100 to 500 nM; to `COc1ccc2c(c1)C(CCNC(C)=O)CC2` (centres unmarked) [Example 25, N-[2-(2,3-Dihydro-6-methoxy-1H-inden-1-yl)-ethyl]acetamide], under 100 nM.
As to `COc1ccc2c(c1)C(CCNC(C)=O)CCC2` (centres unmarked) [Example 4, N-[2-(7-Methoxy-1,2,3,4-tetrahydro-1-naphthalenyl)ethyl]acetamide], the concentration for half-maximal inhibition (IC50) was under 100 nM.
For the compound `COCC(=O)NCCC1CCCc2ccc(OC)cc21` (single isomer, unassigned; (+)) [Example 39, (+)-N-[2-(1,2,3,4-tetrahydro-7-methoxynaphthalen-1-yl)ethyl] methoxyacetamide], the IC50 is under 100 nM.
On to `CCCC(=O)NCCC1CCc2ccc(F)cc21` (centres unmarked) [Example 31, N-[2-(6-Fluoro-2,3-dihydro-1H-inden-1-yl)ethyl]butanamide], for which the IC50 is under 100 nM.
Same read-out and setting: to `CCCC(=O)NCCC1CCc2ccc(OC)cc21` (single isomer, unassigned; (-)) [Example 36] belongs under 100 nM; to `COCC(=O)NCCC1CCCc2ccc(OC)cc21` (centres unmarked) [Example 16, N-[2-(7-Methoxy-1,2,3,4-tetrahydro-1-naphthalenyl)ethyl]-2-methoxyacetamide], under 100 nM.
Same read-out and setting: the value for `CCCC(=O)NCCC1CCCc2ccc(OC)cc21` (centres unmarked) [Example 1, N-[2-(7-Methoxy-1,2,3,4-tetrahydro-1-naphthalenyl)ethyl]butanamide] was under 100 nM; that for `COc1ccc2c(c1)C(CCNC(=O)C1CC1)CCC2` (centres unmarked) [Example 3, N-[2-(7-Methoxy-1,2,3,4-tetrahydro-1-naphthalenyl)ethyl]cyclopropane carboxamide] was under 100 nM.
Regarding `CCCC(=O)NCCC1CCc2ccc(OC)cc21` (centres unmarked) [Example 22, N-[2-(2,3-Dihydro-6-methoxy-1H-inden-1-yl)-ethyl]butanamide], the 50% inhibitory concentration (IC50) was under 100 nM.
On the same count and under the same terms, the value for `CCCC(=O)NCCC1CCc2ccc(C(=O)OC)cc21` (centres unmarked) [Example 42, N-[2-(2,3-Dihydro-6-methoxycarbonyl-1H-inden-1-yl)ethyl]butanamide] was under 100 nM; that for `COc1ccc2c(c1)C(CCNC(C)=O)CC2(C)C` (centres unmarked) [Example 32, N-[2-(2,3-Dihydro-6-methoxy-3,3-dimethyl-1H-inden-1-yl)ethyl]acetamide] was 100 to 500 nM.

Source of the values: EP0728738A1, “Tetralinyl- and indanyl-ethylamides having melatonergic activity” (BRISTOL-MYERS SQUIBB COMPANY, priority 1995, dated 1996).
